Measured values published in patent US7410974B2, “Halogenated Quinazolinyl nitrofurans as antibacterial agents” (Ulysses Pharmaceutical Products, Inc., priority 2003, dated 2008).
In brackets after ≈: the same amount, converted by molar mass. Read-outs that look alike come from different tables or passages of the source.

What was measured:
H. influenzae ATCC 49766 [1] = assay: Minimal Bactericidal Concentration (MBC); assay type: cell-based; settings: Haemophilus influenzae, ATCC49766, 99.9% killing
Method in brief: (§1)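 Bactericidal endpoint follows the MIC read: aliquots of every well without visible growth, no fewer than five, go onto TSA. Incubation lasts exactly 24 h at 35° C. Surviving colonies are then counted.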

H. influenzae ATCC 49247 [2] = assay: Minimal Bactericidal Concentration (MBC); assay type: cell-based; settings: Haemophilus influenzae, ATCC49247, 99.9% killing
Method in brief: as §1

E. faecium ATCC 35667 = assay: MIC broth microdilution (NCCLS); assay type: cell-based, Enterococcus faecium; settings: Enterococcus faecium, ATCC35667, E. faecium ATCC 35667; read-out: MIC
Method in brief: (§2)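 NCCLS broth microdilution; inoculum 10^5-10^6 CFU/ml; 2-fold serial dilutions; 35° C, 24 h; A650 plus visual read. Media: MHBCA (S. saprophyticus, E. faecium), MHBCA + 2% laked horse blood (Listeria), HTM (Haemophilus), the last two under 5% CO2.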

H. influenzae ATCC 49766 [3] = assay: MIC broth microdilution (NCCLS), fastidious bacteria; assay type: cell-based; settings: Haemophilus influenzae, ATCC49766, HTM, 5% CO2
Method in brief: as §2

H. influenzae ATCC 49247 [4] = assay: as above; assay type: cell-based; settings: Haemophilus influenzae, ATCC49247, HTM, 5% CO2
Method in brief: as §2

E. faecalis ATCC 29212 = assay: MIC broth microdilution (NCCLS); assay type: cell-based, Enterococcus faecalis; settings: Enterococcus faecalis, ATCC29212; E. faecalis ATCC 29212; read-out: MIC
[5] = test system: S. saprophyticus ATCC 15305; assay: MIC broth microdilution (NCCLS); assay type: cell-based, Staphylococcus saprophyticus; settings: Staphylococcus saprophyticus, ATCC15305; S. saprophyticus ATCC 15305; read-out: MIC
Method in brief: as §2

B. catarrhalis ATCC 8176 [6] = assay: MIC broth microdilution (NCCLS), fastidious bacteria; assay type: cell-based, Branhamella (Moraxella) catarrhalis; settings: Moraxella catarrhalis, ATCC8176, HTM, 5% CO2
Method in brief: as §2

B. catarrhalis ATCC 8176 [7] = assay: Minimal Bactericidal Concentration (MBC); assay type: cell-based, Branhamella (Moraxella) catarrhalis; settings: Moraxella catarrhalis, ATCC8176, 99.9% killing
Procedure: Minimal Bactericidal Concentration (MBC). After the microtiter plates were read for the determination of the MIC, a 10-μl sample of each clear well (at least 5 wells without visible growth) was applied onto TSA plates for viable counts determination.
Petri dishes were incubated at 35° C. for exactly 24 h and bacterial colonies were counted.

E. coli ATCC 25922 = assay: MIC broth microdilution (NCCLS); assay type: cell-based, Escherichia coli
E. coli MC4100 = assay: MIC broth microdilution (NCCLS); assay type: cell-based; settings: Escherichia coli; E. coli MC4100, pathotype Reference
Procedure: (§3) Minimal Inhibitory Concentration (MIC) Determination. Bacteria (primary strain panel, TABLE 1). Susceptibility tests were performed following the recommendations from the National Committee for Clinical Standards (NCCLS). The MICs were determined by a broth microdilution technique using a final volume of 100 μl of cation-adjusted Mueller Hinton Broth (MHBCA) and a bacterial inoculum of 10^5-10^6 Colony Forming Units (CFU)/ml. The inocula were verified and precisely determined by applying 10-μl drops of 10-fold dilutions onto Triptic Soy Agar plates. The CFU were counted after an incubation of 24 h at 35° C. Any experiment showing an inoculum that was more or less than 10^5-10^6 CFU/ml was rejected. Control antibiotics and test compounds were prepared at a concentration equivalent to 2-fold the highest desired final concentration. Compounds were then diluted directly in the 96-well microtiter plates by serial 2-fold dilutions using a multichannel pipette. Microtiter plates were incubated during 24 h at 35° C. and growth was recorded by using a microtiterplate reader at 650 nm as well as by visual observation. The MIC was defined as the lowest concentration of compound yielding no visible growth. […] Fastidious bacteria. The medium used for Listeria monocytogenes, Neisseria meningitidis, and Campylobacter jejuni was MHBCA containing 2% laked horse blood. The medium used for Haemophilus influenzae and Branhamella (Moraxella) catarrhalis was HTM as recommended by the NCCLS. Cultures of these fastidious bacteria were incubated at 35° C. in a 5% CO2 atmosphere. […] The medium used for Bacteroides fragilis was Wilkins Chalgren broth and growth was allowed under an anaerobic atmosphere at 35° C. for 48 hours.

E. coli Ec119c (EIEC) = assay: MIC broth microdilution, E. coli strains; assay type: cell-based; settings: Escherichia coli, pathotype EIEC
Procedure: as §3
(§4) Finally, compounds were also tested against populations of various clinical strains (antibiotic resistant strain panel, TABLE 1).

E. coli Ec117c (EIEC) = assay: MIC broth microdilution, E. coli strains; assay type: cell-based; settings: Escherichia coli, pathotype EIEC
Procedure: as §3, §4

E. coli Ec118c (EIEC) = assay: MIC broth microdilution, E. coli strains; assay type: cell-based; settings: Escherichia coli, pathotype EIEC
Procedure: as §3, §4

[8] = test system: E. coli d4-OLR-pen10 (O157:H7); assay: MIC broth microdilution, E. coli strains; assay type: cell-based; settings: Escherichia coli
Procedure: as §3, §4

[9] = test system: E. coli d25-ALR-pen14 (O157:H7); assay: MIC broth microdilution, E. coli strains; assay type: cell-based; settings: Escherichia coli
Procedure: as §3, §4

[10] = test system: E. coli ATCC 35150 (O157:H7); assay: MIC broth microdilution, E. coli strains; assay type: cell-based; settings: Escherichia coli, ATCC35150
Procedure: as §3, §4

E. coli Ec022c (EIEC) = assay: MIC broth microdilution, E. coli strains; assay type: cell-based; settings: Escherichia coli, pathotype EIEC
Procedure: as §3, §4

E. coli Ec027c (EIEC) = assay: MIC broth microdilution, E. coli strains; assay type: cell-based; settings: Escherichia coli, pathotype EIEC
Procedure: as §3, §4

S. aureus MRSA COL = assay: MIC broth microdilution (NCCLS); assay type: cell-based, Staphylococcus aureus; settings: Staphylococcus aureus, MRSA, S. aureus MRSA COL; read-out: MIC
Method in brief: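 MHBCA, 10^5-10^6 CFU/ml, 2-fold serial dilutions, 24 h at 35° C. Growth read at 650 nm and visually. MIC = lowest concentration with no visible growth.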

[11] = test system: S. epidermidis ATCC 12228; assay: MIC broth microdilution (NCCLS); assay type: cell-based, Staphylococcus epidermidis; settings: Staphylococcus epidermidis, ATCC12228; S. epidermidis ATCC 12228; read-out: MIC
Method in brief: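 Susceptibility by NCCLS microdilution: checked inoculum 10^5-10^6 CFU/ml, 24 h at 35° C, and growth assessed at 650 nm and by eye. Haemophilus was tested in HTM medium and Listeria with laked horse blood, each incubated under 5% CO2.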

S. aureus ATCC 29213 = assay: MIC broth microdilution (NCCLS); assay type: cell-based, Staphylococcus aureus; settings: Staphylococcus aureus, ATCC29213; S. aureus ATCC 29213; read-out: MIC

In the case of `CC1(C)S[C@@H]2[C@H](NC(=O)[C@H](N)c3ccccc3)C(=O)N2[C@H]1C(=O)O` [Ampicillin], the MBC (H. influenzae ATCC 49766 [1]) is reported as ≤ 0.12 µg/mL, the MBC (H. influenzae ATCC 49247 [2]) is reported as 4 µg/mL (≈ 11.4 µM) and the MIC (E. faecium ATCC 35667) is reported as 1 µg/mL (≈ 2.86 µM). For the same compound, the MIC (H. influenzae ATCC 49766 [3]) was ≤ 0.12 µg/mL, the MIC (H. influenzae ATCC 49247 [4]) was 2 to 4 µg/mL (≈ 5.72 to 11.4 µM) and the MIC (E. faecalis ATCC 29212) was 1 µg/mL (≈ 2.86 µM). The MIC [5] was 0.12 µg/mL (≈ 0.343 µM), the MIC (B. catarrhalis ATCC 8176 [6]) was ≤ 0.03 µg/mL and the MBC (B. catarrhalis ATCC 8176 [7]) was ≤ 0.03 µg/mL. It also gave an MIC (E. coli ATCC 25922; E. coli ATCC 25922 (Reference)) of 4 µg/mL (≈ 11.4 µM), an MIC (E. coli ATCC 25922; Escherichia coli, ATCC25922, E. coli ATCC 25922 (Reference), read-out: MIC) of 4 to 8 µg/mL (≈ 11.4 to 22.9 µM) and an MIC (E. coli MC4100) of 4 µg/mL (≈ 11.4 µM). For the same compound, the MIC (E. coli Ec119c (EIEC)) was > 64 µg/mL, the MIC (E. coli Ec117c (EIEC)) was 16 µg/mL (≈ 45.8 µM) and the MIC (E. coli Ec118c (EIEC)) was > 64 µg/mL. For the same compound, the MIC [8] was 2 to 4 µg/mL (≈ 5.72 to 11.4 µM), the MIC [9] was 2 to 4 µg/mL (≈ 5.72 to 11.4 µM) and the MIC [10] was 2 µg/mL (≈ 5.72 µM). For the same compound, the MIC (E. coli Ec022c (EIEC)) was > 64 µg/mL, the MIC (E. coli Ec027c (EIEC)) was > 64 µg/mL and the MIC (S. aureus MRSA COL) was 8 µg/mL (≈ 22.9 µM). For the same compound, the MIC [11] was 64 µg/mL (≈ 183 µM) and the MIC (S. aureus ATCC 29213) was 1 to 2 µg/mL (≈ 2.86 to 5.72 µM).

With `O=[N+]([O-])c1ccc(C=Cc2nc(Nc3cccc(O)c3)c3cc(F)ccc3n2)o1` [VI, 6-fluoro-2-[2-(5-nitro-2-furyl)vinyl]-4-(m-hydroxyanilino)-quinazoline] the melting point was 241 to 242 °C (dec.).
